For one experiment, the system named is cats. In words: Development of insulin resistance in cats after intraportal muscarinic antagonists. It counts as in vivo, cat. An excerpt:
To avoid the complexity of the reaction to hypoglycemia, the rapid insulin sensitivity test (RIST) was employed (Lautt et al., Can. J. Physiol. Pharmacol. 76:1080 (1998)) wherein a euglycemic clamp was used following the administration of insulin and the response was quantitated as the amount of glucose required to be infused over the test period in order to hold arterial blood glucose levels constant.

A further experiment has as its system atropine-treated rats. The experiment is described as follows: Rapid insulin sensitivity test (RIST) in the atropine model of 75% HDIR in rats. It is filed as in vivo, rat. As for the experimental part:
Male Sprague Dawley rats (250-300 g) were allowed free access to water and normal rodent food for 1 week prior to all studies. Rats were fasted for 8 hours overnight and fed for 2 hours before the start of study. Rats were anesthetized with pentobarbital-sodium (65 mg/ml, ip injection, 0.1 ml/100 g body weight). Animals were placed on a heated thermostatically controlled surgical table to maintain body temperature during surgery and the experimental procedure. An extra-corporeal arterial-venous shunt (the loop) was established between the right femoral artery and right femoral vein, according to a published, standard operating procedure developed in our laboratory (Xie et al., 1996). The loop allows for regular blood sampling of arterial blood throughout the experiment as well as infusion of intravenous drugs and monitoring of arterial blood pressure. […] A laparotomy was performed and an indwelling portal venous catheter was inserted using a portal vein puncture technique. The portal catheter was used to administer the phosphodiesterase inhibitor directly to the liver. […] At this point, blood samples (25 μl) were taken at regular intervals from the loop and analyzed for glucose concentration. […] Glucose levels were monitored every 2 minutes during and after the infusion of insulin. […]

These results are taken from patent publication US20050119272A1, “Use of phosphodiesterase antagonists to treat insulin resistance” (DiaMedica Inc., priority 2002, published 2005).

On to `COc1ccccc1CNCCCCCCNCCCCCCCCNCCCCCCNCc1ccccc1OC` [methoctramine], for which, in the experiment on cats (administered into the portal vein), the “dose required to produce a full insulin resistance” value is on record as 10^−6 μmol/kg.
Regarding `CN1CCN(CC(=O)N2c3ccccc3C(=O)Nc3cccnc32)CC1` [pirenzepine], the “dose achieving a similar degree of insulin resistance” value with cats is listed as 10^−7 mmol/kg.
`CCCOc1ccccc1-c1nc2nn[nH]c2c(=O)[nH]1` [zaprinast] gave an RIST index with atropine-treated rats (after zaprinast 0.1 mg/kg ipv, following atropine-induced 75% HDIR, n=8) of 157.4 ± 6.1 mg/kg. Moreover, the “reversal of HDIR produced by atropine” value in the experiment with atropine-treated rats (zaprinast 0.1 mg/kg ipv, rats) is “able to reverse the HDIR produced by atropine”.
